Source: ChEMBL document CHEMBL1201862, “PubChem BioAssay data set” (2004)
Structures can show the parent of a compound that is named as a salt.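 Exposure lasted 48 hours, with cells grown in 96-well plates and compounds tested at five concentrations. Here, GI50 denotes the concentration required for 50% inhibition of growth.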 Active and inactive are the calls of the source. Cut-off read from the data, not from the text of the source: active = GI50 up to about 1.1 µM and inactive = higher.

Experiments:
Experiment in all cases: inhibition of tumour cell growth, NCI panel, 48 h
[1] = tested on: NCI/ADR-RES
[2] = tested on: SK-MEL-5
[3] = tested on: NCI-H460
[4] = tested on: OVCAR-3
[5] = tested on: OVCAR-4
[6] = tested on: ACHN
[7] = tested on: SNB-19
[8] = tested on: A498
[9] = tested on: K562
[10] = tested on: EKVX
[11] = tested on: HCT-116
[12] = tested on: OVCAR-5
[13] = tested on: MOLT-4
[14] = tested on: M14
[15] = tested on: NCI-H23
[16] = tested on: UACC-257
[17] = tested on: COLO 205
[18] = tested on: SK-MEL-28
[19] = tested on: DMS-114
[20] = tested on: SNB-78

In the case of `CNCCC=C1c2ccccc2CCc2ccccc21` [NORTRIPTYLINE HYDROCHLORIDE], the GI50 [1] is reported as 15.7 µM (inactive), the GI50 [2] is reported as 11.6 µM (inactive) and the GI50 [3] is reported as 14.8 µM (inactive). The GI50 [4] was 11.4 µM (inactive), the GI50 [5] was 14 µM (inactive) and the GI50 [6] was 16.6 µM (inactive). For the same compound, the GI50 [7] was 16.6 µM (inactive), the GI50 [8] was 15.4 µM (inactive) and the GI50 [9] was 11.4 µM (inactive). For the same compound, the GI50 [10] was 15.2 µM (inactive), the GI50 [11] was 14.6 µM (inactive) and the GI50 [12] was 15.3 µM (inactive). The GI50 [13] was 12.1 µM (inactive), the GI50 [14] was 4.25 µM (inactive) and the GI50 [15] was 15.7 µM (inactive). The GI50 [16] was 7.67 µM (inactive), the GI50 [17] was 7.62 µM (inactive) and the GI50 [18] was 13.5 µM (inactive).

In the case of `CSCSCC(CO)NC(=O)/C(C)=C\c1c(C)[nH]c(=O)[nH]c1=O` (stereo unspecified), the GI50 [1] is reported as > 250 µM (inactive), the GI50 [2] is reported as > 250 µM (inactive) and the GI50 [3] is reported as > 250 µM (inactive). The GI50 [4] was > 250 µM (inactive), the GI50 [5] was > 250 µM (inactive) and the GI50 [7] was 48.3 µM (inactive). The GI50 [8] was > 250 µM (inactive), the GI50 [9] was > 250 µM (inactive) and the GI50 [19] was > 250 µM (inactive). The GI50 [10] was > 250 µM (inactive), the GI50 [11] was > 250 µM (inactive) and the GI50 [12] was 207 µM (inactive). For the same compound, the GI50 [13] was > 250 µM (inactive), the GI50 [15] was > 250 µM (inactive) and the GI50 [16] was 170 µM (inactive). The GI50 [17] was > 250 µM (inactive), the GI50 [20] was > 250 µM (inactive) and the GI50 [18] was > 250 µM (inactive).

In the case of `C[C@]12CC[C@H]3[C@@H](CC=C4C[C@@H](O)CC[C@@]43C)[C@@H]1C/C(=C\c1ccc([N+](=O)[O-])cc1)[C@@H]2O`, the GI50 [1] is reported as 12.5 µM (inactive), the GI50 [2] is reported as 6.81 µM (inactive) and the GI50 [3] is reported as 16.1 µM (inactive). The GI50 [4] was 16.3 µM (inactive), the GI50 [5] was < 0.01 µM (active) and the GI50 [6] was 11.6 µM (inactive). For the same compound, the GI50 [7] was 16.9 µM (inactive), the GI50 [8] was 15.1 µM (inactive) and the GI50 [9] was 5.68 µM (inactive). The GI50 [10] was 10.6 µM (inactive), the GI50 [11] was 3.92 µM (inactive) and the GI50 [12] was 25.2 µM (inactive). For the same compound, the GI50 [13] was 4.18 µM (inactive), the GI50 [14] was 22.7 µM (inactive) and the GI50 [15] was 9.98 µM (inactive). For the same compound, the GI50 [16] was 16.3 µM (inactive), the GI50 [17] was 15.1 µM (inactive) and the GI50 [18] was 19.3 µM (inactive).

For `CCCCn1cc[n+](-c2nc3ccccc3n2C)c1`, the GI50 [2] was > 100 µM (inactive), the GI50 [3] was > 100 µM (inactive) and the GI50 [4] was > 100 µM (inactive). For the same compound, the GI50 [5] was > 100 µM (inactive), the GI50 [6] was > 100 µM (inactive) and the GI50 [7] was > 100 µM (inactive). The GI50 [9] was > 100 µM (inactive), the GI50 [19] was > 100 µM (inactive) and the GI50 [10] was > 100 µM (inactive). For the same compound, the GI50 [11] was > 100 µM (inactive), the GI50 [12] was > 100 µM (inactive) and the GI50 [13] was > 100 µM (inactive). The GI50 [14] was > 100 µM (inactive), the GI50 [15] was > 100 µM (inactive) and the GI50 [16] was > 100 µM (inactive). For the same compound, the GI50 [20] was > 100 µM (inactive).

With `c1ccc(Nc2nnc(-c3nsc4ccccc34)o2)cc1` the GI50 [2] was > 100 µM (inactive), the GI50 [3] was 62.1 µM (inactive) and the GI50 [4] was 14 µM (inactive). The GI50 [5] was 41 µM (inactive), the GI50 [6] was 75.3 µM (inactive) and the GI50 [7] was 37.8 µM (inactive). For the same compound, the GI50 [9] was 59.6 µM (inactive), the GI50 [19] was > 100 µM (inactive) and the GI50 [10] was 51.3 µM (inactive). For the same compound, the GI50 [11] was 74.1 µM (inactive), the GI50 [12] was > 100 µM (inactive) and the GI50 [13] was > 100 µM (inactive). The GI50 [14] was > 100 µM (inactive), the GI50 [15] was 91.4 µM (inactive) and the GI50 [16] was > 100 µM (inactive). The GI50 [17] was > 100 µM (inactive), the GI50 [20] was 89.5 µM (inactive) and the GI50 [18] was > 100 µM (inactive).

`CN1CCc2[nH]c3ccccc3c2C1` was tested, and the GI50 [1] was > 100 µM (inactive), the GI50 [2] was > 100 µM (inactive) and the GI50 [3] was > 100 µM (inactive). The GI50 [4] was > 100 µM (inactive), the GI50 [5] was > 100 µM (inactive) and the GI50 [7] was > 100 µM (inactive). For the same compound, the GI50 [8] was > 100 µM (inactive), the GI50 [9] was > 100 µM (inactive) and the GI50 [19] was > 100 µM (inactive). The GI50 [10] was > 100 µM (inactive), the GI50 [11] was > 100 µM (inactive) and the GI50 [12] was > 100 µM (inactive). The GI50 [13] was > 100 µM (inactive), the GI50 [15] was > 100 µM (inactive) and the GI50 [16] was > 100 µM (inactive). The GI50 [17] was > 100 µM (inactive), the GI50 [20] was > 100 µM (inactive) and the GI50 [18] was > 100 µM (inactive).
